Consider 10 molecules from patent US20090076044A1, “VEGFR INHIBITORS CONTAINING A ZINC BINDING MOIETY” (priority 2007, published 2009).

Structures are written as SMILES.

One experiment addresses T1, human EGFR (Homo sapiens, UniProt P00533).
T1 construct: human EGFR (His672-Ala1210); purchased Cell Signaling Technologies; host or cells: baculovirus expression system
The experiment in a line: EGFR kinase assay (HTScan EGF Receptor Kinase Assay Kit, DELFIA). As to conditions: 200 μM ATP. The experiment is classed as biochemical. The protocol: (e) An In Vitro Assay which Determines the Ability of a Test Compound to Inhibit EGFR Kinase.
The ability of compounds to inhibit receptor kinase (EGFR) activity was assayed using HTScan™ EGF Receptor Kinase Assay Kits (Cell Signaling Technologies, Danvers, Mass.). EGFR tyrosine kinase was obtained as GST-kinase fusion protein which was produced using a baculovirus expression system with a construct expressing human EGFR (His672-Ala1210) (GenBank Accession No. NM_005228) with an amino-terminal GST tag. The protein was purified by one-step affinity chromatography using glutathione-agarose. An anti-phosphotyrosine monoclonal antibody, P-Tyr-100, was used to detect phosphorylation of biotinylated substrate peptides (EGFR), Biotin-PTP1B (Tyr66). Enzymatic activity was tested in 60 mM HEPES, 5 mM MgCl2 5 mM MnCl2 200 μM ATP, 1.25 mM DTT, 3 μM Na3VO4, 1.5 mM peptide, and 50 ng EGF Receptor Kinase. Bound antibody was detected using the DELFIA system (PerkinElmer, Wellesley, Mass.) consisting of DELFIA® Europium-labeled Anti-mouse IgG (PerkinElmer, #AD0124), DELFIA® Enhancement Solution (PerkinElmer, #1244-105), and a DELFIA® Streptavidin coated, 96-well Plate (PerkinElmer, AAAND-0005). Fluorescence was measured on a WALLAC Victor 2 plate reader and reported as relative fluorescence units (RFU). Data were plotted using GraphPad Prism (v4.0a) and IC50's calculated using a sigmoidal dose response curve fitting algorithm.
Test compounds were dissolved in dimethylsulfoxide (DMSO) to give a 20 mM working stock concentration. Each assay was setup as follows: Added 100 μl of 10 mM ATP to 1.25 ml 6 mM substrate peptide. Diluted the mixture with dH2O to 2.5 ml to make 2×ATP/substrate cocktail ([ATP]=[…], [substrate]=3 mM). Immediately transfer enzyme from −80° C. to ice. Allowed enzyme to thaw on ice. Microcentrifuged briefly at 4° C. to bring liquid to the bottom of the vial. Returned immediately to ice. Added 10 μl of DTT (1.25 mM) to 2.5 ml of 4× HTScan™ Tyrosine Kinase Buffer (240 mM HEPES pH 7.5, 20 mM MgCl2, 20 mM MnCl, 12 mM NaVO3) to make DTT/Kinase buffer. Transfer 1.25 ml of DTT/Kinase buffer to enzyme tube to make 4× reaction cocktail ([enzyme]=4 ng/μL in 4× reaction cocktail). Incubated 12.5 μl of the 4× reaction cocktail with 12.5 μl/well of prediluted compound of interest (usually around 10 μM) for 5 minutes at room temperature. Added 25 μl of 2×ATP/substrate cocktail to 25 μl/well preincubated reaction cocktail/compound. Incubated reaction plate at room temperature for 30 minutes. Added 50 μl/well Stop Buffer (50 mM EDTA, pH 8) to stop the reaction. Transferred 25 μl of each reaction and 75 μl dH2O/well to a 96-well streptavidin-coated plate and incubated at room temperature for 60 minutes. Washed three times with 200 μl/well PBS/T (PBS, 0.05% Tween-20). Diluted primary antibody, Phospho-Tyrosine mAb (P-Tyr-100), 1:1000 in PBS/T with 1% bovine serum albumin (BSA). Added 100 μl/well primary antibody. Incubated at room temperature for 60 minutes. Washed three times with 200 μl/well PBS/T. Diluted Europium labeled anti-mouse IgG 1:500 in PBS/T with 1% BSA. Added 100 μl/well diluted antibody. Incubated at room temperature for 30 minutes. Washed five times with 200 μl/well PBS/T. Added 100 μl/well DELFIA® Enhancement Solution. Incubated at room temperature for 5 minutes. Detected 615 nm fluorescence emission with appropriate Time-Resolved Plate Reader.

The next experiment concerns the target T2, human c-Met (Homo sapiens, UniProt P08581).
T2 construct: recombinant human catalytic domain (amino acids 956-1390); His; host or cells: insect cells
Briefly: c-Met radioisotope kinase assay. Type of experiment: biochemical. The settings on record: 1 μM ATP. The protocol: (c) An In Vitro Assay which Determines the Ability of a Test Compound to Inhibit c-MET Enzymatic Activity.
For c-Met assay, p33 ATP tracers were incubated with purified recombinant c-Met kinase to monitor the enzyme activity. C-Met (Accession number: GenBank NP_000236.2) is characterized as follows: recombinant human catalytic domain (amino acids 956-1390) with histidine-tagged, expressed in insect cells. Purity≧90% by SDS-PAGE and Coomassie blue staining. MW=53.7 kDa. Specific Activity of 373 nmole of phosphate transferred to myelin basic protein (MBP) per minute per mg of total protein at 30° C. Activity determined at a final protein concentration of 2 μg/mL. Enzyme at 0.41 mg/ml in 20 mM Tris (pH 7.5), 100 mM NaCl, 0.5 mM EDTA, 0.05% Triton X-100, 2 mM DTT, 50% Glycerol. In this assay, reactions were carried out in the presence of 10 nM c-Met kinase and 5 uM myelin basic protein. The reaction was carried out at 30° C. for 120 minutes in a final assay condition contained 20 mM HEPES, pH 7.5, 10 mM MgCl2, 1 mM EGTA, 0.02% Brij 35, 0.02 mg/ml BSA, 0.1 mM Na3VO4, 2 mM DTT and 1 μM ATP. An equal volume of 25% TCA was added to stop the reaction and precipitate the labeled proteins. Precipitated proteins were trapped onto glass fiber B filterplates and excess unlabeled p33 ATP was washed off. The plates were allowed to air-dry prior to the addition of 30 uL/well of Packard Microscint 20. The amount of incorporated isotope was measured using a Perkin Elmer TopCount plate reader. Different concentrations of compounds were added to reaction to assess the activity of compounds to inhibit c-Met kinase. IC50 was calculated using Prism software with sigmoidal dose-response curve fitting.

T2 sequence (P08581 956-1390): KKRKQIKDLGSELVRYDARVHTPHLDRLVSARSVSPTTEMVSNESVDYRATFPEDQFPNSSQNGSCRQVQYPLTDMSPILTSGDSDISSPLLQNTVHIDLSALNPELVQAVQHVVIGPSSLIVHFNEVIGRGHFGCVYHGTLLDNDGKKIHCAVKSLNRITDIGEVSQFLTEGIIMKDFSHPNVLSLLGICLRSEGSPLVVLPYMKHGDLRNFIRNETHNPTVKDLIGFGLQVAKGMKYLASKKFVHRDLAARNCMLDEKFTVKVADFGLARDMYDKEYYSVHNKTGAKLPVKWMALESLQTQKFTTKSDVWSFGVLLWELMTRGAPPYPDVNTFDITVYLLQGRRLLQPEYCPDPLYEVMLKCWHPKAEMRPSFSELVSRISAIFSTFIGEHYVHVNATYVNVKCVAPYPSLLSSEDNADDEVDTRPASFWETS
T1 sequence (P00533 672-1210): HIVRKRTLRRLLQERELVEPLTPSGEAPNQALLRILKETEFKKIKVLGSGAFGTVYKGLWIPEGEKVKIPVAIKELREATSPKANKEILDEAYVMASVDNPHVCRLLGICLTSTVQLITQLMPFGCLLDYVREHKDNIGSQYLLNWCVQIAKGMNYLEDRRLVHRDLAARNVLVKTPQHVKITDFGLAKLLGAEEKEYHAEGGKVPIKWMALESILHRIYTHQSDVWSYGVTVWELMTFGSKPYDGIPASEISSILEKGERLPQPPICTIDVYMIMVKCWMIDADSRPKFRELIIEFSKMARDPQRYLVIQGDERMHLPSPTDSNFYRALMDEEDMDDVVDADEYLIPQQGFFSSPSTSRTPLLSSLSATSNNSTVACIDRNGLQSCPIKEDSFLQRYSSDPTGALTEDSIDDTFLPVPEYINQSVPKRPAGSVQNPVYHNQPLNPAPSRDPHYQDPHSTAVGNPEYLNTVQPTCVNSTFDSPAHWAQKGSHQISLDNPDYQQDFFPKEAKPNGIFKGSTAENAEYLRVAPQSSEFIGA

`COc1cc2ncnc(Nc3ccc4occc4c3)c2cc1OCCCCCCC(=O)NO` [Compound 2, 7-(4-(benzofuran-5-ylamino)-7-methoxyquinazolin-6-yloxy)-N-hydroxyheptanamide] came in with an IC50 against human EGFR of less than 100 nM.
On to `COc1cc2c(Oc3ccc4[nH]c(C)cc4c3F)ncnc2cc1OCCCCCC(=O)NO` [Compound 10, 6-(4-(4-fluoro-2-methyl-1H-indol-5-yloxy)-6-methoxyquinazolin-7-yloxy)-N-hydroxyhexanamide], for which the 50% inhibitory concentration (IC50) at human EGFR lay within 100 to 1000 nM; on human c-Met it was 1000 to 10000 nM.
Taken in the same sequence, the figures for `COc1cc2c(Oc3ccc4[nH]c(C)cc4c3F)ncnc2cc1OCCCCCCC(=O)NO` [Compound 11, 7-(4-(4-fluoro-2-methyl-1H-indol-5-yloxy)-6-methoxyquinazolin-7-yloxy)-N-hydroxyheptanamide] were 1000 to 10000 nM and 1000 to 10000 nM.
Molecule `COc1cc2c(Nc3ccc4[nH]c(C)cc4c3F)ncnc2cc1OCCCCCC(=O)NO` [Compound 13, 6-(4-(4-fluoro-2-methyl-1H-indol-5-ylamino)-6-methoxyquinazolin-7-yloxy)-N-hydroxyhexanamide] returned an IC50 at human EGFR of 100 to 1000 nM.
As to `COc1cc2c(Nc3ccc4[nH]c(C)cc4c3F)ncnc2cc1OCCCCCCC(=O)NO` [Compound 14, 7-(4-(4-fluoro-2-methyl-1H-indol-5-ylamino)-6-methoxy-quinazolin-7-yloxy)-N-hydroxyheptanamide], the IC50 on human EGFR was less than 100 nM; on human c-Met, 1000 to 10000 nM.
Taken in the same sequence, the figures for `Cc1cc2c(F)c(Oc3ncnc4cc(OCCCN5CCCC5)c(OCCCCCC(=O)NO)cc34)ccc2[nH]1` [Compound 16, 6-(4-(4-fluoro-2-methyl-1H-indol-5-yloxy)-7-(3-(pyrrolidin-1-yl)propoxy)quinazolin-6-yloxy)-N-hydroxyhexanamide] were 1000 to 10000 nM and 100 to 1000 nM.
On to `Cc1cc2c(F)c(Oc3ncnc4cc(OCCCN5CCCC5)c(OCCCCCCC(=O)NO)cc34)ccc2[nH]1` [Compound 17], for which the IC50 against human EGFR is 1000 to 10000 nM; against human c-Met it was less than 100 nM.
On human EGFR, `Cc1cc2c(F)c(Nc3ncnc4cc(OCCCN5CCCC5)c(OCCCCC(=O)NO)cc34)ccc2[nH]1` [Compound 18, 5-(4-(4-fluoro-2-methyl-1H-indol-5-ylamino)-7-(3-(pyrrolidin-1-yl)propoxy)quinazolin-6-yloxy)-N-hydroxypentanamide] yielded an IC50 of 100 to 1000 nM.
On human EGFR, `Cc1cc2c(F)c(Nc3ncnc4cc(OCCCN5CCCC5)c(OCCCCCC(=O)NO)cc34)ccc2[nH]1` [Compound 19, 6-(4-(4-Fluoro-2-methyl-1H-indol-5-ylamino)-7-(3-(pyrrolidin-1-yl)propoxy)quinazolin-6-yloxy)-N-hydroxyhexanamide] gave an IC50 of less than 100 nM.
As for `Cc1cc2c(F)c(Nc3ncnc4cc(OCCCN5CCCC5)c(OCCCCCCC(=O)NO)cc34)ccc2[nH]1` [Compound 20, 7-(4-(4-Fluoro-2-methyl-1H-indol-5-ylamino)-7-(3-(pyrrolidin-1-yl)propoxy)quinazolin-6-yloxy)-N-hydroxyheptanamide], the IC50 against human EGFR and against human c-Met was 1000 to 10000 nM in each case.

Usually IC50 stands for the concentration needed to halve the response being measured.
